Data set [1] is described as follows: Median particle size of nebulized test drug solutions. In kind it is physicochemical. Here is the method:
1. Genipin-1-β-D gentiobioside 75 mg/ml group, median particle size is 2.02±0.06 μm; Genipin-1-β-D gentiobioside 37.5 mg/ml group, median particle size is 2.12±0.08 μm; Genipin-1-β-D gentiobioside […] group, median particle size is 2.01±0.09 μm; and Genipin-1-β-D gentiobioside 9.375 mg/ml group, median particle size is 2.07±0.06 μm. The nebulization time for each group is 25 minutes.

The subject of data set [2] is Human Coronavirus 229E (HCoV-229E). In kind it is in vivo. To be noted: 4 days.
In the next data set the test system is SARS-CoV-2. As to the kind of experiment: Virus titer in lung tissue homogenates of SARS-CoV-2 infected mice (TCID50 on VERO E6 cells). In kind it is in vivo, hACE2 transgenic C57BL/6 mice. The protocol:
2.1 Grouping and Drug Administration: hACE2 transgenic C57BL/6 mice were divided into four groups, namely the blank control group, the SARS-CoV-2 infection group, the Genipin-1-β-D-gentiobioside (37.5 mg/kg) treatment group, and the Genipin-1-β-D-gentiobioside (75 mg/kg) treatment group, with 8 mice in each group. Except for the normal group, which received intranasal administration of Phosphate Buffered Saline (PBS), the other groups were infected with 10^4 Plaque Forming Unit (PFU) of Severe Acute Respiratory Syndrome Coronavirus 2 (SARS-CoV-2) virus via intranasal instillation. Two hours' post-infection, the treatment groups received intraperitoneal injections of the drug once daily for 5 consecutive days. Mouse deaths were recorded daily after infection, and the 5-day mortality rate was calculated. At the end of the experiment, the lung tissues were collected and homogenized for virus titer detection. […]
The well-grown VERO E6 cells were inoculated into a 96-well plate at a density of 1×10^4 cells per well and cultured for another 24 hours. […] The number of wells showing CPE at each concentration gradient was recorded, and the Tissue Culture Infectious Dose 50% (TCID50) value for VERO E6 cells was calculated.

Data set [3] relates to Lipopolysaccharide (LPS)-induced pneumonia model in mice. As to the kind of experiment: Inflammatory factors in lung tissue of LPS-induced pneumonia mice (ELISA). The conditions noted are these: i.v. In kind it is in vivo, ICR mice. The protocol: Sixty healthy mice, weighing 18˜20 g, half male and half female, were selected and randomly grouped after stratification by weight; they were divided into a normal control group, a model control group, three Genipin-1-β-D-gentiobioside dose groups (150 mg/kg/d, 75 mg/kg/d, 37.5 mg/kg/d), and a positive control drug Sivelestat Sodium 50 mg/kg/d group, with 10 mice in each group, half male and half female. After grouping, each treatment group was administered intravenously at 20 ml/kg once daily for 2 consecutive days, while the normal control group and model control group were injected with physiological saline. One hour after the second dose, except for the normal control group, the other groups were lightly anesthetized with isoflurane, and a 20 mg/ml LPS physiological saline solution was administered intranasally to the mice at 0.05 ml/mouse to induce the pneumonia model. Six hours after infection, the animals were sacrificed, dissected, and their lungs were removed and weighed to calculate the lung index (lung index=lung weight/body weight×100%).
(1) Sample Collection and Storage: Tissue homogenate samples: The lung tissues of mice were collected and weighed, including those from mice numbered 1, 2, 3, 6, 7, and 8 in each group. The tissues were stored at […] An ultrasonic cell disruptor was used to homogenize the tissues, followed by centrifugation at […] and 1000 r/min for 10 minutes using a low-temperature high-speed centrifuge. The supernatant was then collected, aliquoted, and stored at −80° C. for future use, avoiding repeated freeze-thaw cycles.
(2) The microwell plate, which had been equilibrated to room temperature, was removed from the sealed bag. Different concentrations of standards, experimental samples, or quality control samples were added to the corresponding wells, with 100 μL per well. The reaction wells were sealed with sealing tape and incubated at room temperature for 2 hours. The plate was then washed with wash buffer, repeating the operation four times. After the final wash, the plate was inverted and all residual liquid was patted dry on absorbent paper. Next, 100 μL of enzyme-labeled detection antibody was added to each microwell. The reaction wells were sealed again with sealing tape and incubated at room temperature for another 2 hours. The washing step was repeated as described above. Then, 100 μL of substrate solution was added to each microwell and incubated at room temperature for 30 minutes, protected from light. Within 30 minutes after adding 100 μL of stop solution to each microwell, the absorbance at 450 nm was measured using a microplate reader. The results were then calculated.

Like-named read-outs stand apart in the source and are kept apart here.

With `COC(=O)C1=CO[C@@H](O[C@@H]2O[C@H](CO[C@@H]3O[C@H](CO)[C@@H](O)[C@H](O)[C@H]3O)[C@@H](O)[C@H](O)[C@H]2O)[C@@H]2C(CO)=CC[C@H]12` [Genipin-1-β-D-gentiobioside], the Median particle size in data set [1] (9.375 mg/ml group) was found to be 2.07±0.06 μm; in data set [1] (18.755 mg/ml group), 2.01±0.09 μm; in data set [1] (37.5 mg/ml group), 2.12±0.08 μm; in data set [1] (75 mg/ml group), 2.02±0.06 μm. The “Inhibition Rate (lung index)” value in data set [2] (9.375 mg/ml inhalation 25 min) stood at 65.98%; in data set [2] (18.75 mg/ml inhalation 25 min), 65.59%; in data set [2] (37.5 mg/ml inhalation 25 min) it was 64.22%; in data set [2] (75 mg/ml inhalation 25 min), 109.19%. Moreover, the “Lung Index” value in data set [2] (9.375 mg/ml inhalation 25 min) is listed as 0.77 ± 0.08 g lung weight × 100 g/body weight; in data set [2] (18.75 mg/ml inhalation 25 min) it was 0.77 ± 0.08 g lung weight × 100 g/body weight; in data set [2] (37.5 mg/ml inhalation 25 min), 0.77 ± 0.05 g lung weight × 100 g/body weight; in data set [2] (75 mg/ml inhalation 25 min) it was 0.71 ± 0.05 g lung weight × 100 g/body weight. The “Virus titer in the lung tissue vs model control group” value in the data set on SARS-CoV-2 (37.5 mg/kg, P<0.05) was “significantly reduced the virus titer”; in the data set on SARS-CoV-2 (75 mg/kg, P<0.01) it was “significantly reduced the virus titer”. For the same molecule, the “Inflammatory Factor Levels in Lung Tissue IL-6” value in data set [3] (dosage 37.5 (mg/ml)) was 16.53 ± 1.91 pg/mL; in data set [3] (dosage 75 (mg/ml)) it was 17.72 ± 2.15 pg/mL; in data set [3] (dosage 150 (mg/ml)), 16.63 ± 2.19 pg/mL. The “Inflammatory Factor Levels in Lung Tissue IL-10” value in data set [3] (dosage 37.5 (mg/ml)) stood at 39.00 ± 8.37 pg/mL; in data set [3] (dosage 75 (mg/ml)), 35.75 ± 6.74 pg/mL; in data set [3] (dosage 150 (mg/ml)), 36.00 ± 5.14 pg/mL. Besides, the “Inflammatory Factor Levels in Lung Tissue TNF-α” value turned out to be 106.13 ± 15.70 pg/mL in data set [3] (dosage 37.5 (mg/ml)), 119.71 ± 19.76 pg/mL in data set [3] (dosage 75 (mg/ml)) and 100.25 ± 12.41 pg/mL in data set [3] (dosage 150 (mg/ml)).
